Assay results reported in patent publication US20180250309A1, “METHODS FOR TREATMENT OF MONOCYTE DYSFUNCTION AND CHRONIC INFLAMMATORY MICRO AND MACRO-VASCULAR DISEASES” (THE BOARD OF REGENTS OF THE UNIVERSITY OF TEXAS SYSTEM, priority 2015, published 2018).
Like-named read-outs stand apart in the source and are kept apart here.

Experiments:
[1] = test system: diabetic atherosclerosis; experiment: Dietary supplementation in diabetic mice: monocyte dysfunction, macrophage recruitment, atherosclerosis; assay type: in vivo
[2] = test system: Nox4; experiment: Induction of Nox4 in monocytes under metabolic stress; assay type: cell-based
From the text: The inventor has elucidated the mechanism through which hypercholesterolemia and hyperglycemia promote monocyte dysfunction. Monocyte dysfunction is induced by metabolic disorders via the pathological induction of Nox4.

[3] = test system: THP-1 monocytes; experiment: Monocyte chemotaxis of metabolically primed THP-1 monocytes towards MCP-1 (modified Boyden chamber); assay type: cell-based, Human; conditions: for monocyte chemotaxis: primed with glucose and LDL, 1 nM MCP-1, FIG. 2; for normal or baseline responses to chemokines: unprimed, non-pathogenic chemotaxis
Protocol: (§1) Chemotaxis assays are performed using 48-well, modified Boyden chambers (NeuroProbe, Gaithersburg, Md.) as described previously (1). Briefly, monocytes are primed with glucose and LDL in the presence of UA, 23-OHUA or vehicle (0.1% DMSO). Cells are loaded into upper wells of the chemotaxis chamber. Lower wells contain cell media with 1 nM MCP-1 (R&D Systems, Minneapolic, Minn.) or vehicle. A 5 μm polyvinyl pyrrolidone-free polycarbonate filter membrane is layered between the upper and lower chambers, and the chamber is incubated for 1.5 h for THP-1 monocytes at 37° C. and 5% CO2. The membrane is washed and cells removed from the upper side of the filter and fixed with methanol. Transmigrated are stained with 1 μM propidium iodide. Fluorescence intensity, which correlates with cell number is quantified with KODAK Image Station 4000MM (Carestream, Rochester, N.Y.).
Cell Culture/Priming. Human monocytic THP-1 cells (ATCC) were cultured in THP-1 medium (RPMI 1640, 5 mM glucose, 10% fetal bovine serum (FBS), 2% glutamax, 1% penicillin/streptomycin, 1% HEPES, 0.1% β-mercaptoethanol). Cells are spun down at 400 g, 5 minutes at 25° C. and resuspended in media at […]. Following 48 hours at 37° C. and 5% CO2, cells are plated in 12-well cell culture plates. Phytochemicals are solubilized in dimethylsulfoxide (DMSO) and are added to suspended THP-1 cells at concentrations from 0.03 μM to 3 μM. Control cells without phytonutrients are treated with 0.1% DMSO. Cytotoxicity was assessed with a trypan exclusion assay. To induce a metabolically stressed condition (priming), cells were treated with freshly isolated human LDL is added (100 μg/ml) along with D-glucose (20 mM) for 24 hours.
as §1, with “Chemotaxis. Chemotaxis” for “Chemotaxis”, “(Ullevig et al. Redox Biology. 2014 01/03;2:259-66).” for “(1).”, “islayered” for “is layered”

[4] = Solubility / hydrophilicity relative to ursolic acid; assay type: physicochemical

Row | Compound | atherosclerosis [1] | monocyte dysfunction and macrophage recruitment [1] | atherosclerosis ([1]; listed as ursolic acid) | induction of Nox4 [2] | monocyte priming by metabolic stress (hypersensitization to chemokine-induced activation) [3] | monocyte chemotaxis [3] | normal or baseline responses to chemokines [3] | hydrophilicity relative to UA [4] | solubility compared with ursolic acid [4] | monocyte dysfunction [2]
1 | C[C@H]1[C@H](C)CC[C@]2(C(=O)O)CC[C@]3(C)C(=CC[C@@H]4[C@@]5(C)CC[C@H](O)C(C)(C)[C@@H]5CC[C@]43C)[C@H]12 [UA, Ursolic acid] | potent inhibitor of diabetic atherosclerosis | attenuates monocyte dysfunction and macrophage recruitment | protects diabetic mice from atherosclerosis | prevent the induction of Nox4 | inhibit | reducing monocyte chemotaxis | do not block or affect normal or baseline responses to chemokines |  |  | 
2 | CC1CCC2(C(=O)O)CCC3(C)C(=CCC4C5(C)CCC(O)C(C)(CO)C5CCC43C)C2C1C (stereo not drawn) [23-OH UA, 3β, 23-dihydroxyurs-12-en-28oic acid] |  |  |  | prevents the induction of Nox4 | inhibit | reducing monocyte chemotaxis | do not block or affect normal or baseline responses to chemokines | more hydrophilic | more soluble | prevents
